Series [1] is described as follows: solubility (characterization). It is filed as physicochemical.
The next series deals with Gram-positive organisms. Nature of the series: antibacterial activity, general statement. It is filed as cell-based. To be noted: including organisms resistant to penicillins, macrolides and lincosaminides.
The conditions of series [2]: in water; background statement; cited from earlier work.
The mark [3] stands for this setting: free acid form, in phosphate buffers at physiological pH (7.0-7.5).
Where [4] appears, read: in chloroform, methylene chloride.
Where [5] appears, read: in ether and saturated hydrocarbon solvents.
Setting [6] is: in lower alcohols, ketones, ethyl acetate.

Read-outs that look alike come from different tables or passages of the source.

These results are taken from patent EP0162568A2, “Paulomycin analogues and their preparation” (THE UPJOHN COMPANY, priority 1984, dated 1985).

As for `CC=C(NC(=S)SCC(NC(C)=O)C(=O)O)C(=O)OC1C(COC(C)=O)OC(C2(O)CC(=O)C(O)=C(C(N)=O)C2=O)C(O)C1OC1CC(OC)C(O)(C(C)OC(=O)C(C)C)C(C)O1` (stereo not drawn) [Antibiotic 273a2β], the Solubility entry is on record as “soluble” in series [1] (setting [3]); “insoluble” in series [1] (free acid form, in water); “less soluble” in series [1] (setting [4]); “insoluble” in series [1] (setting [5]); “Soluble” in series [1] (setting [6]); “soluble” in series [1] (salts, in water). Also, in the series on Gram-positive organisms, the “activity against Gram-positive organisms” value was “active”.
On to paulomycin, for which the Solubility entry in series [2] is “relatively insoluble”.
Consider `CC=C(NC(=S)SCC(NC(C)=O)C(=O)O)C(=O)OC1C(COC(C)=O)OC(C2(O)CC(=O)C(O)=C(C(N)=O)C2=O)C(O)C1OC1CC(OC)C(O)(C(C)OC(=O)C(C)CC)C(C)O1` (stereo not drawn) [Antibiotic 273a2α], for which the Solubility result in series [1] (setting [3]) is reported as “soluble”; in series [1] (free acid form, in water), “insoluble”; in series [1] (setting [4]), “less soluble”; in series [1] (setting [5]) it was “insoluble”; in series [1] (setting [6]) it was “Soluble”; in series [1] (salts, in water) it was “soluble”. The “activity against Gram-positive organisms” value in the series on Gram-positive organisms is “active”.
